Measured values as given in patent publication US11976075B2, “Inhibitors of the MYST family of lysine acetyl transferases” (Isosterix, Inc., priority 2022, dated 2024).
Read-outs that look alike come from different tables or passages of the source.

Molecular target: T1, Recombinant KAT6A/MOZ (488-778) protein (Homo sapiens, UniProt Q92794)
T1 construct: Recombinant KAT6A/MOZ (488-778) protein (Active motif, Catalog #81223); purchased Active Motif 81223
Experiment: Kat6a AlphaLISA Inhibition Screening Assay
Format: biochemical
Protocol: The Kat6a inhibitory activity of test compounds was determined using an Alpha Screen-based detection method. The assay reactions were conducted in a volume of 10 μL in Alpha Plate, White 384 well plate (cat #6008280, Perkin Elmer). The enzymatic reactions were performed in assay buffer pH 8.0 (50 mM Tris-HCl, 0.1 mM EDTA, 0.01% Tween-20, 1 mM Dithiothreitol, 0.1% BSA (fatty acid free) and 330 nM TSA (Trichostatin A)). 10 μL reaction volume consisting of 25 nM of Recombinant KAT6A/MOZ (488-778) protein (Active motif, Catalog #81223), 400 nM Acetyl coenzyme A (Catalog #A2056, Sigma), 200 nM of Histone H3 peptide [(amino acids 1-21), biotin-labeled (BPS Biosciences, Catalog #52011,)] and a 10-point dose response curve for test/tool compounds were prepared. Enzyme and compounds solution were pre-incubated in assay plate for 60 or 10 min at room temperature then substrate and Acetyl coenzyme A solution were added to the plate. After addition, the plate was sealed with adhesive seals and incubated for 120 minutes at room temperature.
After 120 minutes of incubation, 5 μL (10 μg/mL) of AlphaLISA anti-acetyl-Lysine acceptor beads (Perkin Elmer, Catalog #AL143C) were added to the plate and it was incubated for 60 minutes at room temperature. Then 10 μL (10 μg/mL) of Alpha Streptavidin donor beads (Perkin Elmer, Catalog #6760002S) were added to the plate which was further incubated for 60 minutes at room temperature. After incubation, the alpha signal was recorded by using Perkin Elmer Envision multi-mode reader.
NA means the compound was not active at the concentration tested. […] NT means not tested.

[1] = 60′ pre-incubation, Table 3, read-out: Kat6A Biochemical assay: IC50
[2] = 60′ pre-incubation, Table 2, read-out: Kat6A biochemical assay: IC50

T1 sequence (Q92794 488-778): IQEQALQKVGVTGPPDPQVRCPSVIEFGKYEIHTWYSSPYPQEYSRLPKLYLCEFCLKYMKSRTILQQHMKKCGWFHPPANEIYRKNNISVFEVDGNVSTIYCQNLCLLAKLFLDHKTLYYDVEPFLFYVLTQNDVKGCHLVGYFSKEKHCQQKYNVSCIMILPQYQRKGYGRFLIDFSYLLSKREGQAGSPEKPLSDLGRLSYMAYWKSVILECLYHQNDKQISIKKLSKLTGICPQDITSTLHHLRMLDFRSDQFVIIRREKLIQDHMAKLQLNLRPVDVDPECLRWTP

SMILES | IC50 [1] [µM] | other results
COc1ccccc1S(=O)(=O)Nc1noc2cc(Cn3cc(CNS(=O)(=O)c4cccnc4Cl)cn3)cc(OC)c12 [compound 84, 2-chloro-N-((1((4methoxy3((2methoxyphenyl)sulfonamido)benzo[d]isoxazol-6-yl)methyl)-1H-pyrazol-4-yl)methyl) pyridine-3-sulfonamide] | ≤ 10 | 
CCC(=O)NCc1ccn(Cc2cc(OC)c3c(NS(=O)(=O)CC4CCCCC4)noc3c2)n1 [compound 129] |  | IC50 (10′ pre-incubation, Table 3, read-out: Kat6A Biochemical assay: IC50): ≤ 10 µM
C=CS(=O)(=O)NCc1ccn(Cc2cc(OC)c3c(NS(=O)(=O)CC4CCCCC4)noc3c2)n1 [Synthetic Example 24, N-((1-((3-((cyclohexylmethyl)sulfonamido)-4-methoxybenzo[d]isoxazol-6-yl)methyl)-1H-pyrazol-3-yl)methyl)ethenesulfonamide] |  | IC50 [2]: ≤ 10 µM
C#CC(=O)NCc1cnn(Cc2cc(OC)n3c(NS(=O)(=O)c4ccccc4OC)nnc3c2)c1 [Synthetic Example 66, N-((1-((5-methoxy-3-((2-methoxyphenyl)sulfonamido)-[1,2,4]triazolo[4,3-a]pyridin-7-yl)methyl)-1H-pyrazol-4-yl)methyl)propiolamide] |  | IC50 [2]: ≤ 10 µM
C=CC(=O)NCC(=O)NCc1cnn(Cc2cc(OC)c3c(NS(=O)(=O)c4ccccc4OC)noc3c2)c1 [Synthetic Example 61, N-[2-[[1-[[4-methoxy-3-[(2-methoxyphenyl)sulfonylamino]-1,2-benzoxazol-6-yl]methyl]pyrazol-4-yl]methylamino]-2-oxo-ethyl]prop-2-enamide] |  | IC50 [2]: ≤ 10 µM
C#CC(=O)NC1CCN(Cc2cc(OC)c3c(NS(=O)(=O)c4ccccc4OC)noc3c2)CC1 [Synthetic Example 64] |  | IC50 [2]: ≤ 10 µM
C#CC(=O)NC1CCN(Cc2cc(OC)c3c(NS(=O)(=O)c4ccccc4OC)noc3c2)C1 (stereo not shown) [Synthetic Example 48, N-(1-((4-methoxy-3-((2-methoxyphenyl)sulfonamido)benzo[d]isoxazol-6-yl)methyl)pyrrolidin-3-yl)propiolamide] |  | IC50 [2]: ≤ 10 µM
C#CC(=O)NCc1cnn(Cc2cc(OC)c3c(NS(=O)(=O)c4ccc(C(=O)O)cc4OC)noc3c2)c1 [Synthetic Example 65, 3-methoxy-4-(N-(4-methoxy-6-((4-(propiolamidomethyl)-1H-pyrazol-1-yl)methyl)benzo[d]isoxazol-3-yl)sulfamoyl)benzoic acid] |  | IC50 [2]: ≤ 10 µM
C=CS(=O)(=O)NCc1ccn(Cc2cc(OC)c3c(NS(=O)(=O)c4ccccc4F)noc3c2)n1 [Synthetic Example 17, 2-fluoro-N-(4-methoxy-6-((3-(vinylsulfonamidomethyl)-1H-pyrazol-1-yl)methyl)benzo[d]isoxazol-3-yl)benzenesulfonamide] |  | IC50 [2]: ≤ 10 µM
C#CC(=O)NCc1cnn(-c2cc(C)nc(C(=O)NNS(=O)(=O)c3ccccc3F)c2)c1 [compound 91, N-((1-(2-(2-((2-fluorophenyl)sulfonyl) hydrazine-1-carbonyl)-6-methylpyridin-4-yl)-1H-pyrazol-4-yl)methyl) propiolamide] | ≤ 10 | 
C#CC(=O)N1CC[C@@H](OCc2cc(OC)c3c(NS(=O)(=O)c4cc(CC)ccc4OC)noc3c2)C1 [compound 110, (R)-5-ethyl-2-methoxy-N-(4-methoxy-6-(((1-propioloylpyrrolidin-3-yl)oxy)methyl)benzo[d]isoxazol-3-yl) benzenesulfonamide] | ≤ 10 | 
C#CC(=O)NCc1cnn(Cc2cc(OC)c3c(NS(=O)(=O)c4ccccc4OC)n[nH]c3c2)c1 [compound 76, N-((1-((4-methoxy-3-((2-methoxyphenyl)sulfonamido)-1H-indazol-6-yl)methyl)-1H-pyrazol-4-yl)methyl)propiolamide] | ≤ 10 | 
C#CC(=O)N1CCN(c2cccc(-c3cc(OC)c4c(NS(=O)(=O)c5c(OC)cccc5OC)noc4c3)c2)CC1 [compound 71, 2,6-dimethoxy-N-(4-methoxy-6-(3-(4-propioloylpiperazin-1-yl)phenyl)benzo[d]isoxazol-3-yl) benzenesulfonamide] |  | IC50 [2]: ≤ 10 µM
C#CC(=O)NCCCOCc1cc(OC)c2c(NS(=O)(=O)c3cc(CC)ccc3OC)noc2c1 [compound 89, N-(3-((3-((5-ethyl-2-methoxyphenyl)sulfonamido)-4-methoxybenzo[d]isoxazol-6-yl)methoxy)propyl) propiolamide] | ≤ 10 | 
C=CC(=O)N1CCC(c2ccccc2-c2cc(OC)c3c(NS(=O)(=O)c4c(OC)cccc4OC)noc3c2)C1 (stereo not shown) [compound 75, N-(6-(2-(1-acryloylpyrrolidin-3-yl)phenyl)-4-methoxybenzo[d]isoxazol-3-yl)-2,6-dimethoxybenzenesulfonamide] | > 10 | 
C=CS(=O)(=O)N1CCN(c2cccc(-c3cc(OC)c4c(NS(=O)(=O)c5c(OC)cccc5OC)noc4c3)c2)CC1 [compound 72, 2,6-dimethoxy-N-(4-methoxy-6-(3-(4-(vinylsulfonyl)piperazin-1-yl)phenyl)benzo[d]isoxazol-3-yl) benzenesulfonamide] | ≤ 10 | 

More lines, main results first:

IC50 [1] [µM] | SMILES | other results
≤ 10 | C#CC(=O)N1CCC(c2ccnc(-c3cc(C)cc(C(=O)NNS(=O)(=O)c4ccccc4F)c3)c2)C1 (stereo not shown) [compound 92, 2-fluoro-N′-(3-methyl-5-(4-(1-propioloylpyrrolidin-3-yl)pyridin-2-yl)benzoyl)benzenesulfonohydrazide] | 
≤ 10 | C#CC(=O)N1CCCN(c2cccc(-c3cc(OC)c4c(NS(=O)(=O)c5c(OC)cccc5OC)noc4c3)c2)CC1 [compound 100, 2,6-dimethoxy-N-(4-methoxy-6-(3-(4-propioloyl-1,4-diazepan-1-yl)phenyl)benzo[d]isoxazol-3-yl)benzenesulfonamide] | 
≤ 10 | C#CC(=O)N1Cc2cnn(Cc3cc(OC)c4c(NS(=O)(=O)c5cc(CC)ccc5OC)noc4c3)c2C1 [compound 99, 5-ethyl-2-methoxy-N-(4-methoxy-6-((5-propioloyl-5,6-dihydropyrrolo[3,4-c]pyrazol-1(4H)-yl)methyl)benzo[d]isoxazol-3-yl)benzenesulfonamide] | 
≤ 10 | C#CC(=O)NCCNC(=O)c1cnn(Cc2cc(OC)c3c(NS(=O)(=O)c4cc(CC)ccc4OC)noc3c2)c1 [compound 94, 1-((3-((5-ethyl-2-methoxyphenyl)sulfonamido)-4-methoxybenzo[d]isoxazol-6-yl)methyl)-N-(2-propiolamidoethyl)-1H-pyrazole-4-carboxamide] | 
≤ 10 | C#CC(=O)N1CCN(c2cccc(-c3cc(OC)c4c(NS(=O)(=O)CC5CCCCC5)noc4c3)c2)CC1 [compound 117, 1-cyclohexyl-N-(4-methoxy-6-(3-(4-propioloylpiperazin-1-yl)phenyl)benzo[d]isoxazol-3-yl) methanesulfonamide] | 
≤ 10 | C#CC(=O)N1CCN(C(=O)c2cnn(Cc3cc(OC)c4c(NS(=O)(=O)c5cc(CC)ccc5OC)noc4c3)c2)CC1 [compound 95, 5-ethyl-2-methoxy-N-(4-methoxy-6-((4-(4-propioloylpiperazine-1-carbonyl)-1H-pyrazol-1-yl)methyl)benzo[d]isoxazol-3-yl)benzenesulfonamide] | 
≤ 10 | C#CC(=O)N1CCN(c2cnc(-c3cc(OC)c4c(NS(=O)(=O)c5c(OC)cccc5OC)noc4c3)s2)CC1 [compound 102, 2,6-dimethoxy-N-(4-methoxy-6-(5-(4-propioloylpiperazin-1-yl)thiazol-2-yl)benzo[d]isoxazol-3-yl)benzenesulfonamide] | 
≤ 10 | C#CC(=O)N1CCN(c2cccc(-c3cc(OC)c4c(NS(=O)(=O)c5c(OC)cccc5OC)noc4c3)n2)CC1 [compound 96, 2,6-dimethoxy-N-(4-methoxy-6-(6-(4-propioloylpiperazin-1-yl)pyridin-2-yl)benzo[d]isoxazol-3-yl)benzenesulfonamide] | 
> 10 | C#CC(=O)N1CCN(c2cccc(-c3cc(OC)c4c(NS(=O)(=O)c5cc(CC)ccc5OC)noc4n3)c2)CC1 [compound 114, 25-ethyl-2-methoxy-N-(4-methoxy-6-(3-(4-propioloylpiperazin-1-yl)phenyl)isoxazolo[5,4-b]pyridin-3-yl)benzenesulfonamide] | 
≤ 10 | C#CC(=O)N1CCN(c2cc(O)cc(-c3cc(OC)c4c(NS(=O)(=O)c5c(OC)cccc5OC)noc4c3)c2)CC1 [compound 115, N-(6-(3-hydroxy-5-(4-propioloylpiperazin-1-yl)phenyl)-4-methoxybenzo[d]isoxazol-3-yl)-2,6-dimethoxybenzenesulfonamide] | 
≤ 10 | C=CS(=O)(=O)NCCOCc1cc(OC)c2c(NS(=O)(=O)c3cc(CC)ccc3OC)noc2c1 [compound 107] | 
≤ 10 | C#CC(=O)N1CCN(c2ccnc(-c3cc(C)cc(C(=O)NNS(=O)(=O)c4ccccc4F)c3)c2)CC1 [compound 103, 2-fluoro-N′-(3-methyl-5-(4-(4-propioloylpiperazin-1-yl)pyridin-2-yl)benzoyl) benzenesulfonohydrazide] | 
